Target: T1, GPR35 (Homo sapiens, UniProt Q9HC97)
T1 construct: expressed in transfected cells; host or cells: CHO-K1 cells co-expressing mitochondrial aequorin and Gα16
Experiment: cellular GPR35 phospho-ERK HTRF assay (inhibition of lodoxamide-induced phospho-ERK signal)
Format: cell-based
Settings: GPR35-CHO-K1-mt aequorin-Gα16 cell line; agonist lodoxamide at EC80; read-out: Activity Group (IC50, inhibition of GPR35 agonist-induced phospho-ERK signal)
Excerpt: (§1) The functional GPR35 assay as described in the accompanying examples measures the ability of GPR35 modulators to inhibit a GPR35 agonist-induced phospho-ERK signal. This is expressed as the concentration of modulator required to reduce the phospho-ERK signal by 50 percent, i.e. the IC50; the signal window being defined as the difference between agonist plus modulator vehicle (no modulator) and agonist vehicle (no agonist) controls.
as §1, with “functional” for “functional GPR35”, “assay” for “assay as”, “described” for “described in the accompanying examples”
This assay is a cellular GPR35 phospho-ERK homogeneous time resolved fluorescence (HTRF) assay using the GPR35-CHO-K1-mt aequorin-Gα16 cell line. Upon activation of GPR35 with the agonist lodoxamide at EC80 concentration, ERK 1/2 is phosphorylated, and after lysis of the cell membrane, phospho-ERK1/2 (Thr202/Tyr204) is detected in a sandwich assay using two different specific antibodies, one labelled with Eu^3+-cryptate (donor) and the second with d2 (acceptor). When the dyes are in proximity, the excitation of the donor with a light source (laser or flash lamp) triggers a Fluorescence Resonance Energy Transfer (FRET) towards the acceptor, resulting in specific acceptor fluorescence (at 665 nm). The specific signal is directly proportional to the amount of phospho-ERK1/2 (Thr202/Tyr204) in the sample. Compounds that interfere with the levels of phospho-ERK1/2 (Thr202/Tyr204) will result in a low HTRF signal.

T1 sequence (Q9HC97 whole entry): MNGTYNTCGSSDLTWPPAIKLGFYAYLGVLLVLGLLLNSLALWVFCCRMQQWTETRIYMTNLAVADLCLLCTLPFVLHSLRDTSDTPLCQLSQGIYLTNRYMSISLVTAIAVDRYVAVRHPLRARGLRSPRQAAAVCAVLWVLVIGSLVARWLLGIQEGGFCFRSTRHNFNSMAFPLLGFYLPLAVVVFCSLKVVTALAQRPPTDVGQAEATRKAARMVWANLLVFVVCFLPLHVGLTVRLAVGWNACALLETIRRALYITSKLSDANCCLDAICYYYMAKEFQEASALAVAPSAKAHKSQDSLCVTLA

SMILES | IC50 [µM]
Cc1ncc(-c2cc(C(=O)Nc3ccc(OCC4CC4)cc3)ccn2)cc1C(=O)O [Example 72, 5-[4-[[4-(Cyclopropylmethoxy)phenyl]carbamoyl]-2-pyridyl]-2-methyl-pyridine-3-carboxylic acid] | 1 to 10
Cc1ncc(-c2cc(C(=O)Nc3ccc(OCC4CC4)cc3)c(F)cn2)cc1C(=O)O [Example 73, 5-[4-[[4-(Cyclopropylmethoxy)phenyl]carbamoyl]-5-fluoro-2-pyridyl]-2-methyl-pyridine-3-carboxylic acid] | 1 to 10
Cc1ncc(-c2cc(C(=O)Nc3ccc(COCc4ccccc4)cc3)ccn2)cc1C(=O)O [Example 74, 5-[4-[[4-(Benzyloxymethyl)phenyl]carbamoyl]-2-pyridyl]-2-methyl-pyridine-3-carboxylic acid] | < 1
Cc1cc(C(=O)Nc2ccc(COCc3ccccc3)cc2)cc(-c2cnc(C)c(C(=O)O)c2)n1 [Example 75, 5-[4-[[4-(Benzyloxymethyl)phenyl]carbamoyl]-6-methyl-2-pyridyl]-2-methyl-pyridine-3-carboxylic acid] | < 1
Cc1ncc(-c2cc(C(=O)Nc3ccc(COCc4ccccc4)cc3)c(F)cn2)cc1C(=O)O [Example 76, 5-[4-[[4-(Benzyloxymethyl)phenyl]carbamoyl]-5-fluoro-2-pyridyl]-2-methyl-pyridine-3-carboxylic acid] | < 1
Cc1ncc(-c2cc(C(=O)Nc3ccc(COCc4ccccc4)c(F)c3)ccn2)cc1C(=O)O [Example 77, 5-[4-[[4-(Benzyloxymethyl)-3-fluoro-phenyl]carbamoyl]-2-pyridyl]-2-methyl-pyridine-3-carboxylic acid] | < 1
Cc1ncc(-c2cc(C(=O)Nc3ccc(COC4CC4)c(F)c3)ccn2)cc1C(=O)O [Example 78, 5-[4-[[4-(Cyclopropoxymethyl)-3-fluoro-phenyl]carbamoyl]-2-pyridyl]-2-methyl-pyridine-3-carboxylic acid] | 1 to 10
Cc1ncc(-c2cc(C(=O)Nc3ccc(OCC4CC4)c(F)c3)ccn2)cc1C(=O)O [Example 79, 5-[4-[[4-(Cyclopropylmethoxy)-3-fluoro-phenyl]carbamoyl]-2-pyridyl]-2-methyl-pyridine-3-carboxylic acid] | 1 to 10
COc1ccc(-c2cnc(C)c(C(=O)O)c2)cc1C(=O)Nc1ccc(COCc2ccccc2)cc1 [Example 80, 5-[3-[[4-(Benzyloxymethyl)phenyl]carbamoyl]-4-methoxy-phenyl]-2-methyl-pyridine-3-carboxylic acid] | < 1
COc1ccc(C(=O)Nc2ccc(COCc3ccccc3)cc2)cc1-c1cnc(C)c(C(=O)O)c1 [Example 81, 5-[5-[[4-(Benzyloxymethyl)phenyl]carbamoyl]-2-methoxy-phenyl]-2-methyl-pyridine-3-carboxylic acid] | < 1
Cc1ccc(-c2cnc(C)c(C(=O)O)c2)cc1C(=O)Nc1ccc(COCc2ccccc2)cc1 [Example 82, 5-[3-[[4-(Benzyloxymethyl)phenyl]carbamoyl]-4-methyl-phenyl]-2-methyl-pyridine-3-carboxylic acid] | 1 to 10
Cc1ccc(C(=O)Nc2ccc(COCc3ccccc3)cc2)cc1-c1cnc(C)c(C(=O)O)c1 [Example 83, 5-[5-[[4-(Benzyloxymethyl)phenyl]carbamoyl]-2-methyl-phenyl]-2-methyl-pyridine-3-carboxylic acid] | < 1
Cc1ncc(-c2ccc(F)c(C(=O)Nc3ccc(OCC4CC4)cc3)c2)cc1C(=O)O [Example 84, 5-[3-[[4-(Cyclopropylmethoxy)phenyl]carbamoyl]-4-fluoro-phenyl]-2-methyl-pyridine-3-carboxylic acid] | 1 to 10
Cc1ncc(-c2cc(C(=O)Nc3ccc(COCc4ccccc4)cc3)ccc2F)cc1C(=O)O [Example 85, 5-[5-[[4-(Benzyloxymethyl)phenyl]carbamoyl]-2-fluoro-phenyl]-2-methyl-pyridine-3-carboxylic acid] | < 1
Cc1ncc(-c2cccc(C(=O)Nc3ccc(COCc4ccccc4)cc3)c2F)cc1C(=O)O [Example 86, 5-[3-[[4-(Benzyloxymethyl)phenyl]carbamoyl]-2-fluoro-phenyl]-2-methyl-pyridine-3-carboxylic acid] | 1 to 10
Cc1ncc(-c2ccc(F)c(C(=O)Nc3ccc(COCc4ccccc4)cc3)c2F)cc1C(=O)O [Example 87, 5-[3-[[4-(Benzyloxymethyl)phenyl]carbamoyl]-2,4-difluoro-phenyl]-2-methyl-pyridine-3-carboxylic acid] | 1 to 10
Cc1ncc(-c2ccc(F)c(C(=O)Nc3ccc(COCC4CC4)c(F)c3)c2)cc1C(=O)O [Example 88, 5-[3-[[4-(Cyclopropylmethoxymethyl)-3-fluoro-phenyl]carbamoyl]-4-fluoro-phenyl]-2-methyl-pyridine-3-carboxylic acid] | < 1
Cc1ncc(-c2ccc(F)c(C(=O)Nc3ccc(OCC4CC4)c(F)c3)c2)cc1C(=O)O [Example 89, 5-[3-[[4-(Cyclopropylmethoxy)-3-fluoro-phenyl]carbamoyl]-4-fluoro-phenyl]-2-methyl-pyridine-3-carboxylic acid] | < 1
Cc1ncc(-c2ccc(F)c(C(=O)Nc3ccc(COCc4ccccc4)c(F)c3)c2)cc1C(=O)O [Example 90, 5-[3-[[4-(Benzyloxymethyl)-3-fluoro-phenyl]carbamoyl]-4-fluoro-phenyl]-2-methyl-pyridine-3-carboxylic acid] | < 1
Cc1ncc(-c2ccc(F)c(C(=O)Nc3ccc(COC4CC4)c(F)c3)c2)cc1C(=O)O [Example 91, 5-[3-[[4-(Cyclopropoxymethyl)-3-fluoro-phenyl]carbamoyl]-4-fluoro-phenyl]-2-methyl-pyridine-3-carboxylic acid] | 1 to 10
Cc1ncc(-c2ccc(F)c(C(=O)Nc3ccc(OC(C)C4CC4)c(F)c3)c2)cc1C(=O)O (stereo not drawn) [Example 92, 5-[3-[[4-(1-Cyclopropylethoxy)-3-fluoro-phenyl]carbamoyl]-4-fluoro-phenyl]-2-methyl-pyridine-3-carboxylic acid] | < 1
Cc1ncc(-c2ccc(F)c(C(=O)Nc3ccc(OC(C)C4CC4)c(C#N)c3)c2)cc1C(=O)O (stereo not drawn) [Example 93, 5-[3-[[3-Cyano-4-(1-cyclopropylethoxy)phenyl]carbamoyl]-4-fluoro-phenyl]-2-methyl-pyridine-3-carboxylic acid] | 1 to 10
CSc1ncc(C(=O)Nc2ccc(OCCc3ccccc3)cc2)cc1-c1cnc(C)c(C(=O)O)c1 [Example 94, 2-Methyl-5-[2-methylsulfanyl-5-[[4-(2-phenylethoxy)phenyl]carbamoyl]-3-pyridyl]pyridine-3-carboxylic acid] | 1 to 10
COCCOc1ncc(C(=O)Nc2ccc(OCCc3ccccc3)cc2)cc1-c1cnc(C)c(C(=O)O)c1 [Example 95, 5-[2-(2-Methoxyethoxy)-5-[[4-(2-phenylethoxy)phenyl]carbamoyl]-3-pyridyl]-2-methyl-pyridine-3-carboxylic acid] | 1 to 10
Cc1ncc(-c2cccc(C(=O)Nc3ccc(CS(=O)(=O)c4ccc(Cl)cc4)cc3)c2)cc1C(=O)O [Example 96, 5-[3-[[4-[(4-Chlorophenyl)sulfonylmethyl]phenyl]carbamoyl]phenyl]-2-methyl-pyridine-3-carboxylic acid] | < 1
Cc1ncc(-c2cccc(C(=O)Nc3ccc(CS(=O)(=O)c4cccc(Cl)c4)cc3)c2)cc1C(=O)O [Example 97, 5-[3-[[4-[(3-Chlorophenyl)sulfonylmethyl]phenyl]carbamoyl]phenyl]-2-methyl-pyridine-3-carboxylic acid] | 1 to 10
Cc1ncc(-c2cccc(C(=O)Nc3ccc(CS(=O)(=O)c4ccccc4Cl)cc3)c2)cc1C(=O)O [Example 98, 5-[3-[[4-[(2-Chlorophenyl)sulfonylmethyl]phenyl]carbamoyl]phenyl]-2-methyl-pyridine-3-carboxylic acid] | 1 to 10
COc1ccc(S(=O)(=O)Cc2ccc(NC(=O)c3cccc(-c4cnc(C)c(C(=O)O)c4)c3)cc2)cc1 [Example 99, 5-[3-[[4-[(4-Methoxyphenyl)sulfonylmethyl]phenyl]carbamoyl]phenyl]-2-methyl-pyridine-3-carboxylic acid] | 1 to 10
COc1cccc(S(=O)(=O)Cc2ccc(NC(=O)c3cccc(-c4cnc(C)c(C(=O)O)c4)c3)cc2)c1 [Example 100, 5-[3-[[4-[(3-Methoxyphenyl)sulfonylmethyl]phenyl]carbamoyl]phenyl]-2-methyl-pyridine-3-carboxylic acid] | 1 to 10
Cc1ccc(S(=O)(=O)Cc2ccc(NC(=O)c3cccc(-c4cnc(C)c(C(=O)O)c4)c3)cc2)cn1 [Example 101, 2-Methyl-5-[3-[[4-[(6-methyl-3-pyridyl)sulfonylmethyl]phenyl]carbamoyl]phenyl]pyridine-3-carboxylic acid] | 1 to 10

— patent US20260216198A1, “GPR35 MODULATORS” (ThirtyFiveBio Limited, priority 2023, published 2026)
